Laboratory results taken from ChEMBL document CHEMBL4138123, “Design, synthesis and biological evaluation of novel pyrazolochalcones as potential modulators of PI3K/Akt/mTOR pathway and inducers of apoptosis in breast cancer cells” (Eur J Med Chem, 2017).

Legend:
Format in all cases: functional
MDA-MB-435 = experiment: Cytotoxicity against human MDA-MB-435 cells assessed as cell growth at 0.01 uM after 48 hrs by sulforhodamine B assay relative to control; conditions: MDA-MB-435, 48 h, read-out: Activity
NCI-H522 = experiment: Cytotoxicity against human NCI-H522 cells assessed as cell growth at 0.01 uM after 48 hrs by sulforhodamine B assay relative to control; conditions: NCI-H522, 48 h, read-out: Activity
SF-268 [1] = experiment: Cytotoxicity against human SF268 cells assessed as cell growth at 10 uM after 48 hrs by sulforhodamine B assay relative to control; conditions: SF-268, 48 h, read-out: Activity
UO-31 [2] = experiment: Cytotoxicity against human UO31 cells assessed as cell growth at 0.1 uM after 48 hrs by sulforhodamine B assay relative to control; conditions: UO-31, 48 h, read-out: Activity
HCT-15 = experiment: Cytotoxicity against human HCT15 cells assessed as cell growth at 1 uM after 48 hrs by sulforhodamine B assay relative to control; conditions: HCT-15, 48 h, read-out: Activity
OVCAR-4 [3] = experiment: Cytotoxicity against human OVCAR4 cells assessed as cell growth at 0.01 uM after 48 hrs by sulforhodamine B assay relative to control; conditions: OVCAR-4, 48 h, read-out: Activity
K562 [4] = experiment: Cytotoxicity against human K562 cells assessed as cell growth at 0.1 uM after 48 hrs by sulforhodamine B assay relative to control; conditions: K562, 48 h, read-out: Activity
MCF7 = experiment: Cytotoxicity against human MCF7 cells assessed as cell growth at 1 uM after 48 hrs by sulforhodamine B assay relative to control; conditions: MCF7, 48 h, read-out: Activity
HT-29 = experiment: Cytotoxicity against human HT-29 cells assessed as cell growth at 0.1 uM after 48 hrs by sulforhodamine B assay relative to control; conditions: HT-29, 48 h, read-out: Activity
OVCAR-4 [5] = experiment: Cytotoxicity against human OVCAR4 cells assessed as cell growth at 100 uM after 48 hrs by sulforhodamine B assay relative to control; conditions: OVCAR-4, 48 h, read-out: Activity
TK-10 = experiment: Cytotoxicity against human TK10 cells assessed as cell growth at 1 uM after 48 hrs by sulforhodamine B assay relative to control; conditions: TK-10, 48 h, read-out: Activity
UACC-62 = experiment: Cytotoxicity against human UACC62 cells assessed as cell growth at 0.1 uM after 48 hrs by sulforhodamine B assay relative to control; conditions: UACC-62, 48 h, read-out: Activity
UACC-257 = experiment: Cytotoxicity against human UACC257 cells assessed as cell growth at 100 uM after 48 hrs by sulforhodamine B assay relative to control; conditions: UACC-257, 48 h, read-out: Activity
UO-31 [6] = experiment: Cytotoxicity against human UO31 cells assessed as cell growth at 100 uM after 48 hrs by sulforhodamine B assay relative to control; conditions: UO-31, 48 h, read-out: Activity
OVCAR-5 [7] = experiment: Cytotoxicity against human OVCAR5 cells assessed as cell growth at 10 uM after 48 hrs by sulforhodamine B assay relative to control; conditions: OVCAR-5, 48 h, read-out: Activity
PC-3 [8] = experiment: Cytotoxicity against human PC3 cells assessed as cell growth at 100 uM after 48 hrs by sulforhodamine B assay relative to control; conditions: PC-3, 48 h, read-out: Activity
786-0 = experiment: Cytotoxicity against human 786-0 cells assessed as cell growth at 10 uM after 48 hrs by sulforhodamine B assay relative to control; conditions: 786-0, 48 h, read-out: Activity
HL-60(TB) [9] = experiment: Cytotoxicity against human HL-60(TB) cells assessed as cell growth at 0.01 uM after 48 hrs by sulforhodamine B assay relative to control; conditions: HL-60, 48 h, read-out: Activity
KM12 = experiment: Cytotoxicity against human KM12 cells assessed as cell growth at 0.1 uM after 48 hrs by sulforhodamine B assay relative to control; conditions: KM12, 48 h, read-out: Activity
BT-549 = experiment: Cytotoxicity against human BT549 cells assessed as cell growth at 1 uM after 48 hrs by sulforhodamine B assay relative to control; conditions: BT-549, 48 h, read-out: Activity
DU-145 = experiment: Cytotoxicity against human DU145 cells assessed as cell growth at 100 uM after 48 hrs by sulforhodamine B assay relative to control; conditions: DU-145, 48 h, read-out: Activity
PC-3 [10] = experiment: Cytotoxicity against human PC3 cells assessed as cell growth at 0.1 uM after 48 hrs by sulforhodamine B assay relative to control; conditions: PC-3, 48 h, read-out: Activity
A549 = experiment: Cytotoxicity against human A549/ATCC cells assessed as cell growth at 0.1 uM after 48 hrs by sulforhodamine B assay relative to control; conditions: A549, 48 h, read-out: Activity
OVCAR-5 [11] = experiment: Cytotoxicity against human OVCAR5 cells assessed as cell growth at 0.01 uM after 48 hrs by sulforhodamine B assay relative to control; conditions: OVCAR-5, 48 h, read-out: Activity
UO-31 [12] = experiment: Cytotoxicity against human UO31 cells assessed as cell growth at 10 uM after 48 hrs by sulforhodamine B assay relative to control; conditions: UO-31, 48 h, read-out: Activity
HOP-62 = experiment: Cytotoxicity against human HOP62 cells assessed as cell growth at 1 uM after 48 hrs by sulforhodamine B assay relative to control; conditions: HOP-62, 48 h, read-out: Activity
HL-60(TB) [13] = experiment: Cytotoxicity against human HL-60(TB) cells assessed as cell growth at 0.1 uM after 48 hrs by sulforhodamine B assay relative to control; conditions: HL-60, 48 h, read-out: Activity
IGROV-1 [14] = experiment: Cytotoxicity against human IGROV1 cells assessed as cell growth at 0.1 uM after 48 hrs by sulforhodamine B assay relative to control; conditions: IGROV-1, 48 h, read-out: Activity
IGROV-1 [15] = experiment: Cytotoxicity against human IGROV1 cells assessed as cell growth at 100 uM after 48 hrs by sulforhodamine B assay relative to control; conditions: IGROV-1, 48 h, read-out: Activity
K562 [16] = experiment: Cytotoxicity against human K562 cells assessed as cell growth at 0.01 uM after 48 hrs by sulforhodamine B assay relative to control; conditions: K562, 48 h, read-out: Activity
IGROV-1 [17] = experiment: Cytotoxicity against human IGROV1 cells assessed as cell growth at 1 uM after 48 hrs by sulforhodamine B assay relative to control; conditions: IGROV-1, 48 h, read-out: Activity
NCI-H226 = experiment: Cytotoxicity against human NCI-H226 cells assessed as cell growth at 1 uM after 48 hrs by sulforhodamine B assay relative to control; conditions: NCI-H226, 48 h, read-out: Activity
SF-268 [18] = experiment: Cytotoxicity against human SF268 cells assessed as cell growth at 1 uM after 48 hrs by sulforhodamine B assay relative to control; conditions: SF-268, 48 h, read-out: Activity
SK-MEL-28 = experiment: Cytotoxicity against human SK-MEL-28 cells assessed as growth inhibition after 48 hrs by sulforhodamine B assay; conditions: SK-MEL-28, 48 h
HCT-116 = experiment: Cytotoxicity against human HCT116 cells assessed as cell growth at 0.01 uM after 48 hrs by sulforhodamine B assay relative to control; conditions: HCT-116, 48 h, read-out: Activity
SK-OV-3 = experiment: Cytotoxicity against human SKOV3 cells assessed as cell growth at 100 uM after 48 hrs by sulforhodamine B assay relative to control; conditions: SK-OV-3, 48 h, read-out: Activity

Compound	growth at 0.01 µM (MDA-MB-435) [%]	growth at 0.01 µM (NCI-H522) [%]	growth at 10 µM (SF-268 [1]) [%]	growth at 0.1 µM (UO-31 [2]) [%]	growth at 1 µM (HCT-15) [%]	growth at 0.01 µM (OVCAR-4 [3]) [%]	growth at 0.1 µM (K562 [4]) [%]	growth at 1 µM (MCF7) [%]	growth at 0.1 µM (HT-29) [%]	growth at 100 µM (OVCAR-4 [5]) [%]	growth at 1 µM (TK-10) [%]	growth at 0.1 µM (UACC-62) [%]	growth at 100 µM (UACC-257) [%]	growth at 100 µM (UO-31 [6]) [%]	growth at 10 µM (OVCAR-5 [7]) [%]	growth at 100 µM (PC-3 [8]) [%]	growth at 10 µM (786-0) [%]	growth at 0.01 µM (HL-60(TB) [9]) [%]	growth at 0.1 µM (KM12) [%]	growth at 1 µM (BT-549) [%]	further results
COc1ccc(-c2cc(/C=C/C(=O)c3ccc(N)cc3)[nH]n2)cc1	97	84	-29	82	50	88	95	42	95	-68	81	97	-95	-87	-41	-83	-29	96	97	77	growth at 100 µM (DU-145): -100%; growth at 0.1 µM (PC-3 [10]): 93%; growth at 0.1 µM (A549): 98%; growth at 0.01 µM (OVCAR-5 [11]): 99%; growth at 10 µM (UO-31 [12]): -88%; growth at 1 µM (HOP-62): 102%; growth at 0.1 µM (HL-60(TB) [13]): 97%; growth at 0.1 µM (IGROV-1 [14]): 91%; growth at 100 µM (IGROV-1 [15]): -67%; growth at 0.01 µM (K562 [16]): 98%; growth at 1 µM (IGROV-1 [17]): 89%; growth at 1 µM (NCI-H226): 86%; growth at 1 µM (SF-268 [18]): 78%; GI50 (SK-MEL-28): 1.87 µM; LC50 (SK-MEL-28): 8.57 µM; TGI (SK-MEL-28): 4.01 µM; growth at 0.01 µM (HCT-116): 97%; growth at 100 µM (SK-OV-3): -68%
COc1ccc(-c2cc(/C=C/C(=O)c3ccc(OC)c(OC)c3)[nH]n2)cc1	97	102	-40	87	65	88	108	27	101	-77	103	93	-100	-100	-49	-90	-89	102	103	85	growth at 100 µM (DU-145): -80%; growth at 0.1 µM (PC-3 [10]): 91%; growth at 0.1 µM (A549): 90%; growth at 0.01 µM (OVCAR-5 [11]): 93%; growth at 10 µM (UO-31 [12]): -96%; growth at 1 µM (HOP-62): 94%; growth at 0.1 µM (HL-60(TB) [13]): 104%; growth at 0.1 µM (IGROV-1 [14]): 91%; growth at 100 µM (IGROV-1 [15]): -84%; growth at 0.01 µM (K562 [16]): 109%; growth at 1 µM (IGROV-1 [17]): 77%; growth at 1 µM (NCI-H226): 76%; growth at 1 µM (SF-268 [18]): 86%; GI50 (SK-MEL-28): 1.65 µM; LC50 (SK-MEL-28): 5.74 µM; TGI (SK-MEL-28): 3.07 µM; growth at 0.01 µM (HCT-116): 97%; growth at 100 µM (SK-OV-3): -95%
